Values quoted from earlier work as cited in US20250195564A1, “IRON SUPPLEMENT COMPOSITIONS AND METHODS OF USE THEREOF” (ThermoLife International, LLC, priority 2021, published 2025).

Settings: iron supplementation; without supplementation mean 36±11 days

Which “time of hemoglobin recovery after blood donation” value does the source give for O=S(=O)([O-])[O-].[Fe+2] [iron sulfate] here?
Its value is 32 days.
